Consider two compounds from patent US8293756B2, “Pharmaceutical compositions comprising nilotinib hydrochloride monohydrate” (Novartis AG, priority 2006, dated 2012).

Structures can show the parent of a compound that is named as a salt.

One data set can be described thus: Hygroscopic tendency. The class given is physicochemical.
Data set [1] in a line: Solubility in aqueous media / water. The class given is physicochemical.

As for `Cc1cn(-c2cc(NC(=O)c3ccc(C)c(Nc4nccc(-c5cccnc5)n4)c3)cc(C(F)(F)F)c2)cn1` [nilotinib hydrochloride monohydrate, 4-Methyl-N-[3-(4-methyl-1H-imidazol-1-yl) -5-(trifluromethyl)phenyl]-3-[(4-pyridine-3-ylpyrimidin-2-yl)amino]benzamide hydrochloride hydrate], the hygroscopic tendency entry in the data set “Hygroscopic tendency” is listed as “slight hygroscopic tendency”. The “solubility in aqueous media” value in data set [1] (aqueous media) was “low solubility”. As to `Cc1cn(-c2cc(NC(=O)c3ccc(C)c(Nc4nccc(-c5cccnc5)n4)c3)cc(C(F)(F)F)c2)cn1` [Nilotinib, 4-Methyl-3-[[4-(3-pyridinyl)-2-pyrimidinyl]amino]-N-[5-(4-methyl-1H-imidazol-1-yl) -3-(trifluoromethyl)phenyl] benzamide], the water solubility entry in data set [1] (water, background statement) is reported as “poorly water soluble”.
